# Source: PMC10660610 (Scientific Reports, 2023)
# Legend:
# Assay type in all cases: binding
# [1] = biological target: T1, KOR (kappa-opioid receptor) (Cavia porcellus, UniProt P41144); conditions: 50 mM Tris-HCl pH 7.4, 25 °C, 30 min; read-out: KOR^b / Ki ± S.E.M.
# T1 construct: gene OPRK1; native full-length receptor in guinea pig brain membrane homogenate
# Excerpt: [3H]HS665 displacement, guinea pig brain membranes on KOR (kappa-opioid receptor)
# [2] = biological target: T2, MOR (mu-opioid receptor) (Rattus norvegicus, UniProt P33535); conditions: 50 mM Tris-HCl pH 7.4, 35 °C, 45 min; read-out: MOR^a / Ki ± S.E.M.
# T2 construct: gene Oprm1; native full-length receptor in rat brain membrane homogenate
# [3] = biological target: T3, DOR (delta-opioid receptor) (Rattus norvegicus, UniProt P33533); conditions: 50 mM Tris-HCl pH 7.4, 35 °C, 45 min; read-out: DOR^a / Ki ± S.E.M.
# T3 construct: gene Oprd1; native full-length receptor in rat brain membrane homogenate
# T3 sequence (P33533 whole entry): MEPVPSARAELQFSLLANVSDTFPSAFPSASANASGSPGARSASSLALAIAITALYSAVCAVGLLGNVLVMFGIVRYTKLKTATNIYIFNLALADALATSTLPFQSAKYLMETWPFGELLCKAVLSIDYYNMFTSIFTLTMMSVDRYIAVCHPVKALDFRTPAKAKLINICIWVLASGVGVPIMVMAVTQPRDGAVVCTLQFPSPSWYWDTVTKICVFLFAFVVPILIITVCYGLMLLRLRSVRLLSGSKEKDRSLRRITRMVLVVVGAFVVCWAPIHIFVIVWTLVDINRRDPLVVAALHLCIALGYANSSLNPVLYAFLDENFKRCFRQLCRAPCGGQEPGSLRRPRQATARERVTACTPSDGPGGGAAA
# T1 sequence (P41144 whole entry): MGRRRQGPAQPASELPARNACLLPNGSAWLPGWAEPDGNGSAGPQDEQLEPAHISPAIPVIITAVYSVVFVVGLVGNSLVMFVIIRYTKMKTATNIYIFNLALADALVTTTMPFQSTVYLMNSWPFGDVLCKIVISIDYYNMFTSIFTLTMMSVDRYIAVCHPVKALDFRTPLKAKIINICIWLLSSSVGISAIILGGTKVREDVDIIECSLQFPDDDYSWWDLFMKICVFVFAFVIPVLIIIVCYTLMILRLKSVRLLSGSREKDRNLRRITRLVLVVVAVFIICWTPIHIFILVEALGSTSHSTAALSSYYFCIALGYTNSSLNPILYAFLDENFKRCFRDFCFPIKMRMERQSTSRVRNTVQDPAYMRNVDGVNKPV
# T2 sequence (P33535 whole entry): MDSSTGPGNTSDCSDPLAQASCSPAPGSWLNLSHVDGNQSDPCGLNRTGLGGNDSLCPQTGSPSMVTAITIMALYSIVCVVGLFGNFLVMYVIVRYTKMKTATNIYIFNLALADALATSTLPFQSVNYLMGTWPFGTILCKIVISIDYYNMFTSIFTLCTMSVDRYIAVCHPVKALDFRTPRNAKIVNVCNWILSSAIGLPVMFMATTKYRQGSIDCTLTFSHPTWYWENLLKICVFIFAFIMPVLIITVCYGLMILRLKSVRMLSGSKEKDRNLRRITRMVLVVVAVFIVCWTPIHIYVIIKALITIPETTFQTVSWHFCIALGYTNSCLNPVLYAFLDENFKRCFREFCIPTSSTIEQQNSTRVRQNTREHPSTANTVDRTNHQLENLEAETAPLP
SMILES,Ki [1] [nM],Ki [2] [nM],Ki [3] [nM]
Oc1ccc2c3c1O[C@H]1[C@@H](O)C=C[C@H]4[C@@H](C2)N(CCN2CCOCC2)CC[C@@]341 [9a],20.3 ± 4.2,389 ± 17,25.3 ± 1.5
Oc1ccc2c3c1O[C@H]1[C@@H](O)C=C[C@H]4[C@@H](C2)N(CCN2CCCCC2)CC[C@@]341 [9b],138 ± 42.3,436 ± 18.8,44.9 ± 7.2
Oc1ccc2c3c1O[C@H]1[C@@H](O)C=C[C@H]4[C@@H](C2)N(CCN2CCCC2)CC[C@@]341 [9c],6.9 ± 4.6,62.3 ± 2.6,34.1 ± 7.1
O=C(CN1CC[C@]23c4c5ccc(O)c4O[C@H]2[C@@H](O)C=C[C@H]3[C@H]1C5)N1CCOCC1 [10a],3.6 ± 1.9,394 ± 186,–
O=C(CN1CC[C@]23c4c5ccc(O)c4O[C@H]2[C@@H](O)C=C[C@H]3[C@H]1C5)N1CCCCC1 [10b],–,1500 ± 664,> 10000
O=C(CN1CC[C@]23c4c5ccc(O)c4O[C@H]2[C@@H](O)C=C[C@H]3[C@H]1C5)N1CCCC1 [10c],10.7 ± 7.7,521 ± 218,839 ± 99.9
O=C1CC[C@@]2(O)[C@H]3Cc4ccc(O)c5c4[C@@]2(CCN3CC(=O)N2CCOCC2)[C@H]1O5 [12a],–,684 ± 32.7,125 ± 39.6
O=C1CC[C@@]2(O)[C@H]3Cc4ccc(O)c5c4[C@@]2(CCN3CC(=O)N2CCCCC2)[C@H]1O5 [12b],–,1490 ± 612,1140 ± 532
